The record followed here is the supplement of paper PMC10307832.

Experiment in all cases: relative viability (nuclei count vs DMSO), 5 days (fraction); higher = more cells survive
Compound in the assay “Venetoclax + Foretinib”: CC1(C)CCC(CN2CCN(c3ccc(C(=O)NS(=O)(=O)c4ccc(NCC5CCOCC5)c([N+](=O)[O-])c4)c(Oc4cnc5[nH]ccc5c4)c3)CC2)=C(c2ccc(Cl)cc2)C1 [Venetoclax] + COc1cc2c(Oc3ccc(NC(=O)C4(C(=O)Nc5ccc(F)cc5)CC4)cc3F)ccnc2cc1OCCCN1CCOCC1 [Foretinib] (partner 0.25 µM)
Put shortly: (§1)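 Cells from lung cancer lines were seeded into 1536-well plates and, one day later, dosed by pin tool. Treatments were either a single drug or a fixed dose of an anchor drug with five library-drug doses (not always all listed) in √10 steps. After 5 days, nuclei were stained in a one-step fixation (final 0.05% Triton X-100, 1% formaldehyde, 1 ug/ml Hoechst) and counted on 4× images, and relative viability is the treated-to-vehicle nuclei ratio, as the median of duplicate plates.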

Compound in the assay “Venetoclax + Decitabine”: CC1(C)CCC(CN2CCN(c3ccc(C(=O)NS(=O)(=O)c4ccc(NCC5CCOCC5)c([N+](=O)[O-])c4)c(Oc4cnc5[nH]ccc5c4)c3)CC2)=C(c2ccc(Cl)cc2)C1 [Venetoclax] + Nc1ncn([C@H]2C[C@H](O)[C@@H](CO)O2)c(=O)n1 [Decitabine] (partner 2 µM)
Put shortly:
as §1

Compound in the assay “Selumetinib + Navitoclax”: Cn1cnc2c(F)c(Nc3ccc(Br)cc3Cl)c(C(=O)NOCCO)cc21 [Selumetinib] + CC1(C)CCC(c2ccc(Cl)cc2)=C(CN2CCN(c3ccc(C(=O)NS(=O)(=O)c4ccc(N[C@H](CCN5CCOCC5)CSc5ccccc5)c(S(=O)(=O)C(F)(F)F)c4)cc3)CC2)C1 [Navitoclax] (partner 0.5 µM)
The method in brief:
as §1

Compound in the assay “Selumetinib + Decitabine”: Cn1cnc2c(F)c(Nc3ccc(Br)cc3Cl)c(C(=O)NOCCO)cc21 [Selumetinib] + Nc1ncn([C@H]2C[C@H](O)[C@@H](CO)O2)c(=O)n1 [Decitabine] (partner 2 µM)
Put shortly: as §1

With NCI-H1734, the relative viability in the assay with Venetoclax + Foretinib (first compound 0.01 µM) stood at 0.88; with Venetoclax + Foretinib (first compound 0.03162 µM), 0.871; with Venetoclax + Foretinib (first compound 0.1 µM) it was 0.794; with Venetoclax + Foretinib (first compound 0.3162 µM), 0.823; with Venetoclax + Foretinib (first compound 1 µM) it was 0.878; with Venetoclax + Decitabine (first compound 0.01 µM), 0.464. The relative viability with Venetoclax + Decitabine (first compound 0.03162 µM) came to 0.515; in the assay with Venetoclax + Decitabine (first compound 0.1 µM) it was 0.504; with Venetoclax + Decitabine (first compound 0.3162 µM), 0.474; with Venetoclax + Decitabine (first compound 1 µM) it was 0.493; with Selumetinib + Navitoclax (first compound 0.02 µM), 0.862; with Selumetinib + Navitoclax (first compound 0.06325 µM) it was 0.818. Also, the relative viability came to 0.87 with Selumetinib + Navitoclax (first compound 0.2 µM); 0.679 with Selumetinib + Navitoclax (first compound 0.6325 µM); 0.53 with Selumetinib + Decitabine (first compound 0.02 µM); 0.479 in the assay with Selumetinib + Decitabine (first compound 0.06325 µM); 0.502 in the assay with Selumetinib + Decitabine (first compound 0.2 µM); 0.528 with Selumetinib + Decitabine (first compound 0.6325 µM).

On to NCI-H2023, for which the relative viability with Venetoclax + Foretinib (first compound 0.01 µM) came out at 0.813; with Venetoclax + Foretinib (first compound 0.03162 µM), 0.924; with Venetoclax + Foretinib (first compound 0.1 µM), 1.14; in the assay with Venetoclax + Foretinib (first compound 0.3162 µM), 0.84; with Venetoclax + Foretinib (first compound 1 µM), 0.653; with Venetoclax + Decitabine (first compound 0.01 µM), 0.218. Also, the relative viability stood at 0.23 in the assay with Venetoclax + Decitabine (first compound 0.03162 µM); 0.23 with Venetoclax + Decitabine (first compound 0.1 µM); 0.237 with Venetoclax + Decitabine (first compound 0.3162 µM); 0.234 with Venetoclax + Decitabine (first compound 1 µM); 0.937 in the assay with Selumetinib + Navitoclax (first compound 0.02 µM); 0.924 with Selumetinib + Navitoclax (first compound 0.06325 µM). Also, the relative viability in the assay with Selumetinib + Navitoclax (first compound 0.2 µM) was 0.959; with Selumetinib + Navitoclax (first compound 0.6325 µM), 0.783; in the assay with Selumetinib + Decitabine (first compound 0.02 µM) it was 0.232; with Selumetinib + Decitabine (first compound 0.06325 µM), 0.211; in the assay with Selumetinib + Decitabine (first compound 0.2 µM), 0.209; with Selumetinib + Decitabine (first compound 0.6325 µM), 0.247.

As for NCI-H2009, the relative viability with Venetoclax + Foretinib (first compound 0.01 µM) stood at 1.22; with Venetoclax + Foretinib (first compound 0.03162 µM) it was 1.25; in the assay with Venetoclax + Foretinib (first compound 0.1 µM) it was 1.1; with Venetoclax + Foretinib (first compound 0.3162 µM), 1.19; with Venetoclax + Foretinib (first compound 1 µM) it was 1.13; with Venetoclax + Decitabine (first compound 0.01 µM), 0.441. Also, the relative viability with Venetoclax + Decitabine (first compound 0.03162 µM) stood at 0.41; with Venetoclax + Decitabine (first compound 0.1 µM), 0.345; with Venetoclax + Decitabine (first compound 0.3162 µM), 0.352; in the assay with Venetoclax + Decitabine (first compound 1 µM), 0.358; with Selumetinib + Navitoclax (first compound 0.02 µM) it was 1.07; in the assay with Selumetinib + Navitoclax (first compound 0.06325 µM) it was 0.935. Further, the relative viability stood at 0.673 with Selumetinib + Navitoclax (first compound 0.2 µM); 0.554 in the assay with Selumetinib + Navitoclax (first compound 0.6325 µM); 0.354 with Selumetinib + Decitabine (first compound 0.02 µM); 0.292 with Selumetinib + Decitabine (first compound 0.06325 µM); 0.35 in the assay with Selumetinib + Decitabine (first compound 0.2 µM); 0.279 with Selumetinib + Decitabine (first compound 0.6325 µM).

In the case of HCC-78, the relative viability with Venetoclax + Foretinib (first compound 0.01 µM) was 0.518; with Venetoclax + Foretinib (first compound 0.03162 µM), 0.54; in the assay with Venetoclax + Foretinib (first compound 0.1 µM) it was 0.525; with Venetoclax + Foretinib (first compound 0.3162 µM), 0.484; in the assay with Venetoclax + Foretinib (first compound 1 µM), 0.576; with Venetoclax + Decitabine (first compound 0.01 µM), 0.689. For the same cell line, the relative viability was found to be 0.744 with Venetoclax + Decitabine (first compound 0.03162 µM); 0.786 with Venetoclax + Decitabine (first compound 0.1 µM); 0.652 in the assay with Venetoclax + Decitabine (first compound 0.3162 µM); 0.58 with Venetoclax + Decitabine (first compound 1 µM); 0.77 with Selumetinib + Navitoclax (first compound 0.02 µM); 0.758 in the assay with Selumetinib + Navitoclax (first compound 0.06325 µM). Also, the relative viability with Selumetinib + Navitoclax (first compound 0.2 µM) worked out at 0.69; with Selumetinib + Navitoclax (first compound 0.6325 µM), 0.738; in the assay with Selumetinib + Decitabine (first compound 0.02 µM), 0.819; with Selumetinib + Decitabine (first compound 0.06325 µM), 0.759; with Selumetinib + Decitabine (first compound 0.2 µM), 0.779; with Selumetinib + Decitabine (first compound 0.6325 µM) it was 0.685.
